27 compounds from patent US7968577B2 (Bristol-Myers Squibb Company, priority 2006, dated 2011) can be followed below.

Experiment [1] deals with T1, human full-length glucocorticoid receptor (Homo sapiens, UniProt P04150).
T1 construct: recombinantly expressed human full-length glucocorticoid receptor; purchased PanVera Co., Madison, Wis; P2816
T1 sequence (P04150 1-777): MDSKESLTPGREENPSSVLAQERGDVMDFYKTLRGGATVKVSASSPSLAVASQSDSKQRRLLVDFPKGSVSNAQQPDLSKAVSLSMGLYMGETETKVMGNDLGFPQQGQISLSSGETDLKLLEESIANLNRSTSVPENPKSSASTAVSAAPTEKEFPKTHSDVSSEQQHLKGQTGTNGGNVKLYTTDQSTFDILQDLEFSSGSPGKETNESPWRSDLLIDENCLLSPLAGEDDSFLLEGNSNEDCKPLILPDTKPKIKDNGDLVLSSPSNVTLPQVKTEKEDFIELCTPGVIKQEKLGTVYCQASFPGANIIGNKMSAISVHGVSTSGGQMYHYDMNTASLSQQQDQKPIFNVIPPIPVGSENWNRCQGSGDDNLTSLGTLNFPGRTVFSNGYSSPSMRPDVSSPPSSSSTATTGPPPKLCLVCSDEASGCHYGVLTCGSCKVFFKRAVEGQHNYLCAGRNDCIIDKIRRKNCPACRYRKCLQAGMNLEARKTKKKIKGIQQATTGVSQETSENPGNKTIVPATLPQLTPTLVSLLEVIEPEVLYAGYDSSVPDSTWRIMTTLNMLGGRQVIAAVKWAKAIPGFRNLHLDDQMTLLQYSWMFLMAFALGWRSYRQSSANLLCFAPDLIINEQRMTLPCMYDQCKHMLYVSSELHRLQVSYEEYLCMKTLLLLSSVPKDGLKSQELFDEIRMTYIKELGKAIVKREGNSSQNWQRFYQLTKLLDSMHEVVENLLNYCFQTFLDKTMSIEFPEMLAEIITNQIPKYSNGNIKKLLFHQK
As to the kind of experiment: Glucocorticoid Receptor Binding Assay (II), fluorescence polarization competitor kit (Fluormone GS1). The following applies: GR Binding Assay (II). As to the method: Glucocorticoid Receptor Binding Assay (II)^b
In order to measure the binding of compounds on the glucocorticoid receptor a commercially available kit was used (Glucocorticoid receptor competitor assay kit, PanVera Co., Madison, Wis., P2816). Briefly, a cell lysate containing recombinantly expressed human full-length glucocorticoid receptor was mixed with a fluorescently labeled glucocorticoid (1 nM Fluormone GS1) in the presence or absence of test compound. After one hour at room temperature, the fluorescence polarization (FP) of the samples were measured.

Experiment [2] has as its system AP-1 induced transcriptional activity. As to the kind of experiment: Cellular Transrepressional Assay: AP-1 luciferase reporter in PMA-activated A549 cells. To be noted: Homo sapiens; for Emax: A549, 7 h, maximum inhibition, Cellular Transrepression Assay, read-out: AP-1 Max % inh (Cellular Transrepression Assay); for EC50: A549, Cellular Transrepression Assay. It is filed as cell-based. The procedure, abridged: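 Compounds tested from 0.1 nM to 40 μM during a 7 h PMA (10 ng/ml) stimulation of A549 cells stably transfected with 7× AP-1 sites driving luciferase. Repression expressed as % reduction of PMA-induced luminescence; EC50 by curve fitting.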

Each structure is given as a SMILES string.

One may read the Ki as a measure of affinity in units of concentration, obtained from inhibition or displacement. A high value points to a looser hold on the target. For the compound `CC(C)(C(=O)Nc1nccs1)[C@@H](c1ccccc1)c1ccc(N2CCOCC2)cc1` (stereo in doubt) [Example 257, 2,2-dimethyl-3-(4-(4-morpholinyl)phenyl)-3-phenyl-N-1,3-thiazol-2-ylpropanamide], the affinity in experiment [1], expressed as Ki, was 71.4 nM. Consider `CC(C)(C(=O)Nc1nncs1)[C@@H](c1ccccc1)c1ccc(N2CCOCC2)cc1` (stereo in doubt) [Example 259, 2,2-dimethyl-3-(4-(4-morpholinyl)phenyl)-3-phenyl-N-1,3,4-thiadiazol-2-ylpropanamide], for which the Ki in experiment [1] was 190 nM. Compared with the last compound, the Ki is about 2.7-fold higher.

Compound `COc1ccc(C(c2ccc(OC)cc2)C(C)(C)C(=O)Nc2nccs2)cc1` [Example 69, 2,2-dimethyl-3,3-bis(4-(methyloxy)phenyl)-N-1,3-thiazol-2-ylpropanamide] yielded a Ki in experiment [1] of 67.2 nM. This Ki is about 2.8-fold lower than that of the compound before.

`CC(C)(C(=O)Nc1nccs1)C(c1ccc(F)cc1)c1ccc(N2CCOCC2)cc1` (stereo not shown) [Example 222, 3-(4-Fluorophenyl)-2,2-dimethyl-3-(4-(4-morpholinyl)phenyl)-N-1,3-thiazol-2-ylpropanamide]: the inhibitory constant (Ki) in experiment [1] turned out to be 12.6 nM.

With `Cc1ccc(C(c2ccc(N3CCOCC3)cc2)C(C)(C)C(=O)Nc2nncs2)cc1` (stereo not shown) [Example 226, 2,2-dimethyl-3-(4-methylphenyl)-3-(4-(4-morpholinyl)phenyl)-N-1,3,4-thiadiazol-2-ylpropanamide], the affinity in experiment [1], expressed as Ki, was 9.4 nM. Compound `CC(C)(C(=O)Nc1nncs1)C(c1ccc(F)cc1)c1ccc(N2CCOCC2)cc1` (stereo not shown) [Example 231, 3-(4-fluorophenyl)-2,2-dimethyl-3-(4-(4-morpholinyl)phenyl)-N-1,3,4-thiadiazol-2-ylpropanamide] had a Ki in experiment [1] of 18.2 nM. On the same count and under the same terms, with `CC(C)(C(=O)Nc1nccs1)C(c1ccc(Cl)cc1)c1ccc(N2CCOCC2)cc1` (stereo not shown) [Example 232, 3-(4-chlorophenyl)-2,2-dimethyl-3-(4-(4-morpholinyl)phenyl)-N-1,3-thiazol-2-ylpropanamide] the figure was 14.5 nM; with `CC(C)(C(=O)Nc1nncs1)C(c1ccc(Cl)cc1)c1ccc(N2CCOCC2)cc1` (stereo not shown) [Example 233, 3-(4-chlorophenyl)-2,2-dimethyl-3-(4-(4-morpholinyl)phenyl)-N-1,3,4-thiadiazol-2-ylpropanamide], 13.2 nM.

Broadly, the EC50 is the concentration giving half of the maximal effect. A higher EC50 goes with a need for much substance. Turning to `COc1ccc(-c2ccc(C(c3ccccc3)C(C)(C)C(=O)Nc3nncs3)cc2)cc1` (stereo not shown) [Example 378, 2,2-dimethyl-3-(4′-(methyloxy)-4-biphenylyl)-3-phenyl-N-1,3,4-thiadiazol-2-ylpropanamide], in experiment [2], the Emax worked out at 26.2% and the EC50 was 894 nM. On to `CC(C)Oc1ccc(-c2ccc(C(c3ccccc3)C(C)(C)C(=O)Nc3nncs3)cc2)cc1` (stereo not shown) [Example 382, 2,2-dimethyl-3-(4′-((1-methylethyl)oxy)-4-biphenylyl)-3-phenyl-N-1,3,4-thiadiazol-2-ylpropanamide], for which, in experiment [2], the Emax was found to be 40.1% and a half-maximal response (EC50) required 28.1 nM.

On to `CC(C)CC(c1ccc(-c2ccc(OC(C)C)cc2)cc1)C(C)(C)C(=O)Nc1nncs1` (stereo not shown) [Example 395, 2,2,5-trimethyl-3-(4′-((1-methylethyl)oxy)-4-biphenylyl)-N-1,3,4-thiadiazol-2-ylhexanamide], for which, in experiment [2], the Emax was 32.5% and the EC50 was found to be 13.4 nM. Take `CC(C)Cc1ccc(-c2ccc(C(CC(C)C)C(C)(C)C(=O)Nc3nccs3)cc2)cc1` (stereo not shown) [Example 396, 2,2,5-trimethyl-3-(4′-(2-methylpropyl)-4-biphenylyl)-N-1,3-thiazol-2-ylhexanamide]: in experiment [2], the Emax was found to be 31.5% and the response was half-maximal at 227 nM (EC50). Consider `CCCc1ccc(-c2ccc(C(CC(C)C)C(C)(C)C(=O)Nc3nccs3)cc2)cc1` (stereo not shown) [Example 398, 2,2,5-trimethyl-3-(4′-propyl-4-biphenylyl)-N-1,3-thiazol-2-ylhexanamide], for which, in experiment [2], the Emax turned out to be 28.2% and it took 70 nM to reach a half-maximal effect (EC50). On the same counts, the results for `CC(C)CC(c1ccc(-c2ccc(OC(C)C)cc2)cc1)C(C)(C)C(=O)Nc1nccs1` (stereo not shown) [Example 400, 2,2,5-trimethyl-3-(4′-((1-methylethyl)oxy)-4-biphenylyl)-N-1,3-thiazol-2-ylhexanamide] are 46.1% and 267 nM.

Consider `CC(C)(C(=O)Nc1nncs1)C(c1ccccc1)c1ccc(-c2ccc(C(=O)N3CCOCC3)cc2)cc1` (stereo not shown) [Example 401, 2,2-dimethyl-3-(4′-(4-morpholinylcarbonyl)-4-biphenylyl)-3-phenyl-N-1,3,4-thiadiazol-2-ylpropanamide], for which, in experiment [2], the Emax was 47% and the EC50 turned out to be 13.3 nM.

Turning to `CC(C)(C(=O)Nc1nncs1)C(c1ccccc1)c1ccc(-c2ccccc2)cc1` (stereo not shown) [Example 402, 3-(4-biphenylyl)-2,2-dimethyl-3-phenyl-N-1,3,4-thiadiazol-2-ylpropanamide], in experiment [2], the Emax came to 26.5% and a half-maximal effect (EC50) was put at 7.9 nM.

Regarding `CC(C)(C(=O)Nc1nncs1)C(c1ccccc1)c1ccc(-c2ccc(Cl)cc2)cc1` (stereo not shown) [Example 403, 3-(4′-chloro-4-biphenylyl)-2,2-dimethyl-3-phenyl-N-1,3,4-thiadiazol-2-ylpropanamide], in experiment [2], the Emax came to 24.9% and the EC50 stood at 3.03 nM. Turning to `CC(C)(C(=O)Nc1nncs1)C(c1ccccc1)c1ccc(-c2ccc(-c3ccccc3)cc2)cc1` (stereo not shown) [Example 404, 2,2-dimethyl-3-phenyl-3-(1,1′:4′,1″- terphenyl-4-yl)-N-1,3,4-thiadiazol-2-ylpropanamide], in experiment [2], the Emax amounted to 21.9% and the EC50 was determined as 9.57 nM. For `CC(C)(C(=O)Nc1nncs1)C(c1ccccc1)c1ccc(-c2ccc(OC(F)(F)F)cc2)cc1` (stereo not shown) [Example 405, 2,2-dimethyl-3-phenyl-N-1,3,4-thiadiazol-2-yl-3-(4′-(trifluoromethoxy)-4-biphenylyl)propanamide] the same measures were 35.2% and 24.6 nM. On the same counts, the results for `CC(=O)c1ccc(-c2ccc(C(c3ccccc3)C(C)(C)C(=O)Nc3nncs3)cc2)cc1` (stereo not shown) [Example 406, 3-(4′-acetyl-4-biphenylyl)-2,2-dimethyl-3-phenyl-N-1,3,4-thiadiazol-2-ylpropanamide] are 29.4% and 39 nM. For `CCc1ccc(-c2ccc(C(c3ccccc3)C(C)(C)C(=O)Nc3nncs3)cc2)cc1` (stereo not shown) [Example 407, 3-(4′-ethyl-4-biphenylyl)-2,2-dimethyl-3-phenyl-N-1,3,4-thiadiazol-2-ylpropanamide] the same measures were 37.5% and 14.9 nM. As to `COCc1ccc(-c2ccc(C(c3ccccc3)C(C)(C)C(=O)Nc3nncs3)cc2)cc1` (stereo not shown) [Example 408, 3-(4′-(methoxymethyl)-4-biphenylyl)-2,2-dimethyl-3-phenyl-N-1,3,4-thiadiazol-2-ylpropanamide], in experiment [2], the Emax is 24.9% and the EC50 came out at 39.8 nM.

In the case of `CC(C)c1ccc(-c2ccc(C(c3ccccc3)C(C)(C)C(=O)Nc3nncs3)cc2)cc1` (stereo not shown) [Example 422, 3-(4′-isopropyl-4-biphenylyl)-2,2-dimethyl-3-phenyl-N-1,3,4-thiadiazol-2-ylpropanamide], in experiment [2], the Emax is 33.7% and the EC50 was 2.7 nM. As for `CC(C)c1cccc(-c2ccc(C(c3ccccc3)C(C)(C)C(=O)Nc3nncs3)cc2)c1` (stereo not shown) [Example 423, 3-(3′-isopropyl-4-biphenylyl)-2,2-dimethyl-3-phenyl-N-1,3,4-thiadiazol-2-ylpropanamide], in experiment [2], the Emax is 34.8% and the EC50 turned out to be 6.07 nM. On to `CC(C)(C)NC(=O)c1ccc(-c2ccc(C(c3ccccc3)C(C)(C)C(=O)Nc3nncs3)cc2)cc1` (stereo not shown) [Example 424, N-tert-butyl-4′-(2,2-dimethyl-3-oxo-1-phenyl-3-(1,3,4-thiadiazol-2-ylamino)propyl)-4-biphenylcarboxamide], for which, in experiment [2], the Emax stood at 26.4% and it took 14.5 nM to reach a half-maximal effect (EC50). On to `CC(C)(C(=O)Nc1nncs1)C(c1ccccc1)c1ccc(-c2ccc(C(=O)NC3CC3)cc2)cc1` (stereo not shown) [Example 425, N-cyclopropyl-4′-(2,2-dimethyl-3-oxo-1-phenyl-3-(1,3,4-thiadiazol-2-ylamino)propyl)-4-biphenylcarboxamide], for which, in experiment [2], the Emax was determined as 28.7% and the EC50 was 3.63 nM. Regarding `CCCCOc1ccc(-c2ccc(C(CC(C)C)C(C)(C)C(=O)Nc3nncs3)cc2)cc1` (stereo not shown) [Example 442, 3-(4′-butoxy-4-biphenylyl)-2,2,5-trimethyl-N-1,3,4-thiadiazol-2-ylhexanamide], in experiment [2], the Emax was 22.7% and a half-maximal effect (EC50) was put at 11.7 nM.
